Legend:
caspase-1 = target: T1, caspase-1 (Homo sapiens, UniProt P29466); assay: Caspase-1 enzyme inhibition (Ki, method of Margolin et al.); type: biochemical; conditions: Suc-YVAD-pNA substrate 80 μM, 37° C., pH 7.5; read-out: Ki C1
T1 sequence (P29466 120-297 limits assumed): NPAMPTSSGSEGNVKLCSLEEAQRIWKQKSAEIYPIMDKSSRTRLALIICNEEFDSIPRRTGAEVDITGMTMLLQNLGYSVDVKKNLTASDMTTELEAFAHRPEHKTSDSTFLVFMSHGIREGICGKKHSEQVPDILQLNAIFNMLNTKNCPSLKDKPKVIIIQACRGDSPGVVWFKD
T1 sequence (P29466 317-404 limits assumed): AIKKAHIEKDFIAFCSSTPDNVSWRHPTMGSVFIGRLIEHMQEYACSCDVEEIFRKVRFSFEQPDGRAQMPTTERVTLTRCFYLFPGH
Description: (§1) Compounds of this invention may be tested using the methods described below.
(§2) In Vitro Assays Enzyme Inhibition
(§3) Ki values for test compounds with caspase-1 and caspase-8 were obtained by the method of Margolin et al. (J. Biol. Chem., 272 pp. 7223-7228 (1997)). Other caspases may be assayed similarly (see, e.g., WO 99/47545). Assays were performed in 10 mM Tris (Sigma Corp, St Louis Mo.) pH 7.5, 1 mM Dithiothreitol (DTT, Research Organic INC, Cleveland, Ohio) and 0.1% CHAPS (Pierce, Rockford Ill.) at 37° C. For caspase-3, a solution of 8% glycerol was added to the assay buffer to improve enzyme stability. A 65 μL aliquot of the assay buffer and 5 μL aliquot of the appropriate dilutions of inhibitor in DMSO where pipetted into a 96 well plate, treated with 10 μL of caspase, then diluted in assay buffer (0.5-40 nM active protein by active site titration). A control containing DMSO but no compound was included for each determination. The plates were then incubated for 15 minutes at 37° C., before addition of the appropriate substrate (20 μL, final concentration 1-4×KM, final assay volume 100 μL) to initiate the reaction. Reaction rates were measured at 37° C. either by following the time dependant increase in absorbance at 405 nm (for the pNA substrates) or in fluorescence (Ex 390, Em 460) (for the AMC substrates). The rates obtained were plotted against inhibitor concentration and the data fit to the Morrison tight-binding equation for competitive inhibitors (Morrison, J. F., Biochem. Biophys. Acta, 185 pp. 269-286 (1969)). The substrates used for the individual assays were as follows:
Caspase-1 Suc-YVAD-pNA (Bachem, King of Prussia, Pa.) (final concentration in the assay 80 μM);

caspase-8 = caspase-8 (Homo sapiens, UniProt Q14790); assay: Caspase-8 enzyme inhibition (Ki, method of Margolin et al.); type: biochemical; conditions: Ac-DEVD-pNA substrate 80 μM, 37° C., pH 7.5; read-out: Ki C8
Chain of caspase-8 (Q14790 217-374 limits assumed, species assumed): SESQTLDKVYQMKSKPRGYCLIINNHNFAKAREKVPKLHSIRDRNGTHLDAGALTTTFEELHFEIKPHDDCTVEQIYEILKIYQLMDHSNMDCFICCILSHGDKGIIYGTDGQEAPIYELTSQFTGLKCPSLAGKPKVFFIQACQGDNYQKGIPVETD
Chain of caspase-8 (Q14790 385-479 limits assumed, species assumed): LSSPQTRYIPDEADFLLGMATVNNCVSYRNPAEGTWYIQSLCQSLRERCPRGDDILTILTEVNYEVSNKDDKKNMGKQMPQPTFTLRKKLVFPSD
Description: as §1, §2, §3
Caspase-8 Ac-DEVD-pNA (Bachem, King of Prussia, Pa.) (final concentration in assay 80 μM).

Row | Structure (SMILES) | Ki (caspase-1) | Ki (caspase-8)
1 | CC(C)(C)[C@H](NC(=O)c1ccccc1C(F)(F)F)C(=O)N1CCC[C@H]1C(=O)N[C@H](C=O)CC(=O)O [II-29, (S,S,S)-(3S)-({1-[3,3-Dimethyl-(2S)-(2-trifluoromethyl-benzoylamino)-butyryl]-pyrrolidine-(2S)-carbonyl}-amino)-4-oxo-butyric acid] | < 10 nM | < 10 nM
2 | COc1cccc(C(=O)N[C@H](C(=O)N2CCC[C@H]2C(=O)N[C@H](C=O)CC(=O)O)C(C)(C)C)c1Cl [II-30, (S,S,S)-(3S)-({1-[(2S)-(2-Chloro-3-methoxy-benzoylamino)-3,3-dimethyl-butyryl]-pyrrolidine-(2S)-carbonyl}-amino)-4-oxo-butyric acid] | < 10 nM | < 10 nM
3 | COc1cccc(C(=O)N[C@H](C(=O)N2CCC[C@H]2C(=O)N[C@H](C=O)CC(=O)O)C(C)(C)C)c1F [II-31, (S,S,S)-(3S)-({1-[(2S)-(2-Fluoro-3-methoxy-benzoylamino)-3,3-dimethyl-butyryl]-pyrrolidine-(2S)-carbonyl}-amino)-4-oxo-butyric acid] | < 10 nM | < 10 nM
4 | CC(C)(C)[C@H](NC(=O)c1cccc(OC(F)(F)F)c1Cl)C(=O)N1CCC[C@H]1C(=O)N[C@H](C=O)CC(=O)O [II-32, (S,S,S)-(3S)-({1-[(2S)-(2-Chloro-3-trifluoromethoxy-benzoylamino)-3,3-dimethyl-butyryl]-pyrrolidine-(2S)-carbonyl}-amino)-4-oxo-butyric acid] | < 10 nM | < 10 nM
5 | CC(C)(C)[C@H](NC(=O)c1cccc(OC2CC2)c1Cl)C(=O)N1CCC[C@H]1C(=O)N[C@H](C=O)CC(=O)O [II-33, (S,S,S)-(3S)-({1-[(2S)-(2-Chloro-3-cyclopropyloxy-benzoylamino)-3,3-dimethyl-butyryl]-pyrrolidine-(2S)-carbonyl}-amino)-4-oxo-butyric acid] | < 10 nM | < 10 nM
6 | Cc1cccc(C(=O)N[C@H](C(=O)N2CCC[C@H]2C(=O)N[C@H](C=O)CC(=O)O)C(C)(C)C)c1Cl [II-34, (S,S,S)-(3S)-({1-[(2S)-(2-Chloro-3-methyl-benzoylamino)-3,3-dimethyl-butyryl]-pyrrolidine-(2S)-carbonyl}-amino)-4-oxo-butyric acid] | < 10 nM | < 10 nM
7 | COc1cccc(C(=O)N[C@H](C(=O)N2CCC[C@H]2C(=O)N[C@H](C=O)CC(=O)O)C(C)C)c1Cl [II-35, (S,S,S)-(3S)-({1-[(2S)-(2-chloro-3-methoxy-benzoylamino)-3-methyl-butyryl]-pyrrolidine-(2S)-carbonyl}-amino)-4-oxo-butyric acid] | < 10 nM | < 10 nM
8 | CCc1cccc(C(=O)N[C@H](C(=O)N2CCC[C@H]2C(=O)N[C@H](C=O)CC(=O)O)C(C)(C)C)c1Cl [II-36, (S,S,S)-(3S)-({1-[(2S)-(2-Chloro-3-ethyl-benzoylamino)-3,3-dimethyl-butyryl]-pyrrolidine-(2S)-carbonyl}-amino)-4-oxo-butyric acid] | < 10 nM | < 10 nM
9 | COc1ccc(C(=O)N[C@H](C(=O)N2CCC[C@H]2C(=O)N[C@H](C=O)CC(=O)O)C(C)C)c(Cl)c1 [II-37, (S,S,S)-(3S)-({1-[(2S)-(2-chloro-4-methoxy-benzoylamino)-3-methyl-butyryl]-pyrrolidine-(2S)-carbonyl}-amino)-4-oxo-butyric acid] | < 10 nM | 10 to 20 nM
10 | CC(C)(C)[C@H](NC(=O)c1cccc(OCC2CC2)c1Cl)C(=O)N1CCC[C@H]1C(=O)N[C@H](C=O)CC(=O)O [II-38, (S,S,S)-(3S)-({1-[(2S)-(2-Chloro-3-cyclopropylmethoxy-benzoylamino)-3,3-dimethyl-butyryl]-pyrrolidine-(2S)-carbonyl}-amino)-4-oxo-butyric acid] | < 10 nM | < 10 nM
11 | CC(C)(C)[C@H](NC(=O)c1cccc(O)c1Cl)C(=O)N1CCC[C@H]1C(=O)N[C@H](C=O)CC(=O)O [II-39, (S,S,S)-(3S)-({1-[(2S)-(2-Chloro-3-hydroxy-benzoylamino)-3,3-dimethyl-butyryl]-pyrrolidine-(2S)-carbonyl}-amino)-4-oxo-butyric acid] | < 10 nM | < 10 nM

From patent publication US7652153B2, “Caspase inhibitors and uses thereof” (Vertex Pharmaceuticals Incorporated, priority 2004, dated 2010)
